Laboratory results as given in patent US12565488B2, “Inhibitors of influenza virus replication” (COCRYSTAL PHARMA, INC., priority 2018, dated 2026).

test system: Influenza type A (strain A/PR/8/34, ATCC VR-95); assay: Influenza antiviral assay: inhibition of virus-induced cytopathic effects (CPE) in MDCK cells, XTT dye reduction; assay type: cell-based; details: Influenza A virus, H1N1 / PR/8, MDCK, 96 h, Influenza A (H1N1) replication in MDCK cells, CPE reduction by XTT at 4 days post-infection; read-out: Influenza H1N1 affinity, EC50

| SMILES | EC50 [µM] |
| --- | --- |
| O=C(NO)c1c(O)c(=O)ccn1NC1c2ccccc2SCc2c1ccc(F)c2F (stereo not shown) [Compound 129] | 1 to 10 |
| CNC(=O)c1c(O)c(=O)ccn1NC1c2ccccc2CSc2cc(F)c(F)cc21 (stereo not shown) [Compound 78] | 1 to 10 |
| O=C(Nc1ccccc1)c1c(O)c(=O)ccn1NC1c2ccccc2COc2ccccc21 (stereo not shown) [Compound 11] | > 100 |
| CNC(=O)c1c(O)c(=O)ccn1NC1c2ccccc2COc2cc(Cl)c(Cl)cc21 (stereo not shown) [Compound 76, 1-((2,3-dichloro-6,11-dihydrodibenzo[b,e]oxepin-11-yl)amino)-3-hydroxy-N-methyl-4-oxo-1,4-dihydropyridine-2-carboxamide] | > 100 |
| O=C(O)c1c(O)c(=O)ccn1NC1c2ccccc2OCc2c1ccc(F)c2F (stereo not shown) [Compound 75] | 10 to 100 |
| O=C(O)c1c(O)c(=O)ccn1NC1c2ccccc2SCc2c1ccc(F)c2F (stereo not shown) [Compound 40, 1-((7,8-difluoro-6,11-dihydrodibenzo[b,e]thiepin-11-yl)amino)-3-hydroxy-4-oxo-1,4-dihydropyridine-2-carboxylic acid] | 1 to 10 |
| O=C(O)c1c(O)c(=O)ccn1NC1c2cc(F)c(F)cc2CSc2ccccc21 (stereo not shown) [Compound 95] | 1 to 10 |
| CN(C1c2ccccc2COc2ccccc21)n1ccc(=O)c(O)c1C(=O)Nc1ccccc1 (stereo not shown) [Compound 34] | > 100 |
| CNC(=O)c1c(O)c(=O)ccn1CC(c1ccccc1)c1ccccc1 [Compound 38] | > 100 |
| O=C(Nc1ccc(C(F)(F)F)cc1)c1c(O)c(=O)ccn1NC1c2ccccc2COc2ccccc21 (stereo not shown) [Compound 35] | > 100 |
| O=C(Nc1cccc(O)c1)c1c(O)c(=O)ccn1NC1c2ccccc2COc2ccccc21 (stereo not shown) [Compound 19] | > 100 |
| O=C(NCc1cccc(C(F)(F)F)c1)c1c(O)c(=O)ccn1NC1c2ccccc2COc2ccccc21 (stereo not shown) [Compound 37] | > 100 |
| O=C(Nc1cccc(C(F)(F)F)c1)c1c(O)c(=O)ccn1CC1c2ccccc2COc2ccccc21 (stereo not shown) [Compound 48] | > 100 |
| CNC(=O)c1c(O)c(=O)ccn1NC1c2ccccc2CSc2cc(Cl)c(Cl)cc21 (stereo not shown) [Compound 79, 1-((2,3-dichloro-6,11-dihydrodibenzo[b,e]thiepin-11-yl)amino)-3-hydroxy-N-methyl-4-oxo-1,4-dihydropyridine-2-carboxamide] | > 100 |
| O=C(O)c1c(O)c(=O)ccn1NC1c2ccc(F)c(F)c2CSc2c(-c3ccc(F)cc3)cccc21 (stereo not shown) [Compound 122] | > 100 |
| O=C(O)c1c(O)c(=O)ccn1NC(c1ccccc1)c1cccc2ccccc12 (stereo not shown) [Compound 112] | 10 to 100 |
| NC(=O)c1c(O)c(=O)ccn1NC1c2ccccc2SCc2c1ccc(F)c2F (stereo not shown) [Compound 127] | 1 to 10 |
| O=C(O)c1cn(NC2c3ccccc3SCc3c2ccc(F)c3F)cc(O)c1=O (stereo not shown) [Compound 120] | 1 to 10 |
| CN(C1c2ccccc2COc2ccccc21)n1ccc(=O)c(O)c1C(=O)NCc1ccccc1 (stereo not shown) [Compound 18] | > 100 |
| O=c1ccn(NC2c3ccccc3SCc3c2ccc(F)c3F)cc1O (stereo not shown) [Compound 43, 1-((7,8-difluoro-6,11-dihydrodibenzo[b,e]thiepin-11-yl)amino)-3-hydroxypyridin-4(1H)-one] | > 100 |
| O=C(O)c1c(O)c(=O)ccn1NC1c2ccccc2S(=O)(=O)Cc2c1ccc(F)c2F (stereo not shown) [Compound 126] | 10 to 100 |
| CC(C)c1ccc2c(c1)C(Nn1ccc(=O)c(O)c1C(=O)O)c1ccc(F)c(F)c1CS2 (stereo not shown) [Compound 113] | > 100 |
| O=C(NCc1ccc(-c2ccccc2)cc1)c1c(O)c(=O)ccn1NC1c2ccccc2COc2ccccc21 (stereo not shown) [Compound 23, N-(Biphenyl-4-ylmethyl)-1-(6,11-dihydrodibenzo[b,e]oxepin-11-ylamino)-3-hydroxy-4-oxo-1,4-dihydropyridine-2-carboxamide] | 1 to 10 |
| O=C(O)c1c(O)c(=O)ccn1NC1c2ccccc2SCc2c1ccc(Br)c2Cl (stereo not shown) [Compound 97] | 1 to 10 |
| CN(Cc1ccccc1)C(=O)c1c(O)c(=O)ccn1CC1c2ccccc2COc2ccccc21 (stereo not shown) [Compound 57] | > 100 |
| CNC(=O)c1c(O)c(=O)ccn1NC(c1cccc2ccccc12)c1cccc2ccccc12 [Compound 69] | > 100 |
| O=C(NCCOCCO)c1c(O)c(=O)ccn1NC1CCCNc2ccccc21 (stereo not shown) [Compound 8] | > 100 |
| CN(C)C(=O)c1c(O)c(=O)ccn1NC1c2ccccc2COc2ccccc21 (stereo not shown) [Compound 5] | > 100 |
| CNC(=O)c1c(O)c(=O)ccn1NC1CCCN(Cc2ccccc2)c2ccccc21 (stereo not shown) [Compound 54] | > 100 |
| CN(C(c1ccccc1)c1ccccc1)n1ccc(=O)c(O)c1 [Compound 39] | > 100 |

same assay, conditions: Influenza A virus, H1N1 / PR/8, MDCK, 96 h, read-out: Influenza H1N1 affinity, EC50

| SMILES | EC50 [µM] |
| --- | --- |
| CNC(=O)c1cn(CC2c3ccccc3COc3ccccc32)c(C(=O)NC)c(O)c1=O (stereo not shown) [Compound 65, 1-((6,11-dihydrodibenzo[b,e]oxepin-11-yl)methyl)-3-hydroxy-N2,N5-dimethyl-4-oxo-1,4-dihydropyridine-2,5-dicarboxamide] | > 100 |
